Experimental data published in patent US20260317324A1, “BIFUNCTIONAL COMPOUNDS FOR DEGRADING BRAF VIA UBIQUITIN PROTEOSOME PATHWAY” (Nurix Therapeutics, Inc., priority 2023, published 2026).

Key:
Assay type in all cases: cell-based
[1] = molecular target: T1, BRAF G469A (Homo sapiens, UniProt P15056, G469A); assay: BRAF HiBiT degradation assay, C-terminal HiBiT-tagged BRAF G469A overexpressed in HCT-116 BRAF−/− cells (clone 34), Nano-Glo HiBiT Lytic assay
T1 construct: Horizon Discovery (HCT-116 BRAF−/− cells); host or cells: HCT-116 BRAF−/− cells, clone 34, lentiviral transduction
T1 sequence (P15056 whole entry G469A): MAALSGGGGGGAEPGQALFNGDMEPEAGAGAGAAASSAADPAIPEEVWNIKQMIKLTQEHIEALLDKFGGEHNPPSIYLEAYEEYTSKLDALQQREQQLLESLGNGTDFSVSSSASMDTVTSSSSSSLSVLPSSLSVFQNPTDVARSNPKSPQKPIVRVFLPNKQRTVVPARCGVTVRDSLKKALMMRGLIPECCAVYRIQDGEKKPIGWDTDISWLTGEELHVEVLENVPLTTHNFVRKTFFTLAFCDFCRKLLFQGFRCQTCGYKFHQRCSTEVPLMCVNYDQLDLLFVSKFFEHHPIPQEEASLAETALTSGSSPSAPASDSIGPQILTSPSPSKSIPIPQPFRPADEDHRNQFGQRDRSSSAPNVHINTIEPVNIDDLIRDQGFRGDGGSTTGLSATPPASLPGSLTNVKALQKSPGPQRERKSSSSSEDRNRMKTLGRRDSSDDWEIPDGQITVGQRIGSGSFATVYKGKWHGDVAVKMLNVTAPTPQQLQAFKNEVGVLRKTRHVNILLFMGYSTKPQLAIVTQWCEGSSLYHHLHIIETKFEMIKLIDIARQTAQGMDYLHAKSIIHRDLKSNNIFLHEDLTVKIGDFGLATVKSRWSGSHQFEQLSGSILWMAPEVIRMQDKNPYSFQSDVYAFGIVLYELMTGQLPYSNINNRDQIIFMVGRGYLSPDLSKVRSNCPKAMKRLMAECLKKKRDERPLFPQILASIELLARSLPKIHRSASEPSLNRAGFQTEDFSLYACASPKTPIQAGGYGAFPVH
Summary of the method: (§1)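 We quantified degradation of the C-terminally HiBiT-tagged, overexpressed mutant by lytic luminescence, normalizing to DMSO-treated cells with wild-type HCT-116 background subtracted. Dose series ran from 1 μM to 0.01 nM at 0.2% DMSO. Observed Dmax is % degraded at maximal effect.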

[2] = molecular target: T2, BRAF D594G (Homo sapiens, UniProt P15056, D594G); assay: BRAF HiBiT degradation assay, C-terminal HiBiT-tagged BRAF D594G overexpressed in HCT-116 BRAF−/− cells (clone 63), Nano-Glo HiBiT Lytic assay
T2 construct: Horizon Discovery (HCT-116 BRAF−/− cells); host or cells: HCT-116 BRAF−/− cells, clone 63, lentiviral transduction
T2 sequence (P15056 whole entry D594G): as the sequence (P15056 whole entry G469A) above, with A469G, D594G counted along it
Summary of the method: as §1

[3] = molecular target: T3, BRAF G466V (Homo sapiens, UniProt P15056, G466V); assay: BRAF HiBiT degradation assay, C-terminal HiBiT-tagged BRAF G466V overexpressed in HCT-116 BRAF−/− cells (clone 8), Nano-Glo HiBiT Lytic assay
T3 construct: Horizon Discovery (HCT-116 BRAF−/− cells); host or cells: HCT-116 BRAF−/− cells, clone 8, lentiviral transduction
T3 sequence (P15056 whole entry G466V): as the sequence (P15056 whole entry G469A) above, with G466V, A469G counted along it
Summary of the method: as §1

[4] = molecular target: T4, BRAF V600E (Homo sapiens, UniProt P15056, V600E); assay: BRAF HiBiT degradation assay, C-terminal HiBiT-tagged BRAF V600E A375 cells (clone 1F10), Nano-Glo HiBiT Lytic assay; conditions: for Dmax: A-375
T4 construct: endogenous C-terminal HiBiT fusion tag on BRAF V600E allele; endogenous in cells; host or cells: A375 clone 1F10 (CRISPR-Cas9 knock-in of the HiBiT tag; parental A375 from ATCC)
T4 sequence (P15056 whole entry V600E, the tested form may be a part): as the sequence (P15056 whole entry G469A) above, with A469G, V600E counted along it
Summary of the method: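 Steps: seed HiBiT-tagged A375 clone 1F10 cells; incubate 24 h, 37 °C, 5% CO2; add compound (11 half-log points from 1 μM, 0.2% DMSO); lyse with HiBiT detection reagent plus LgBiT for 10 min; read luminescence; fit % protein remaining against concentration.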

[5] = BRAF G469A (Class 2), HCT-116 BRAF−/− cells, DC50 at 50% degradation
[6] = BRAF G469A (Class 2), HCT-116 BRAF−/− cells, observed Dmax relative to DMSO control
[7] = BRAF D594G (Class 3), HCT-116 BRAF−/− cells, DC50 at 50% degradation
[8] = BRAF D594G (Class 3), HCT-116 BRAF−/− cells, observed Dmax relative to DMSO control
[9] = BRAF G466V (Class 3), HCT-116 BRAF−/− cells, DC50 at 50% degradation
[10] = BRAF G466V (Class 3), HCT-116 BRAF−/− cells, observed Dmax relative to DMSO control
[11] = A375 (BRAF V600E, Class 1), DC50 at 50% degradation
[12] = A375 (BRAF V600E, Class 1), observed Dmax, % protein degraded relative to DMSO control
[13] = Class 2, BRAF G469A, DC50 at 50%: fitted conc. at Y=50
[14] = HCT-116, Class 2, BRAF G469A, percentage protein degraded at maximal compound effect relative to DMSO
[15] = BRAF D594G, DC50 at 50%: fitted conc. at Y=50
[16] = HCT-116, BRAF D594G, percentage protein degraded at maximal compound effect relative to DMSO
[17] = BRAF G466V, DC50 at 50%: fitted conc. at Y=50
[18] = HCT-116, BRAF G466V, percentage protein degraded at maximal compound effect relative to DMSO
[19] = A375 (BRAF V600E), DC50 at 50%: fitted conc. at Y=50
[20] = A375 (BRAF V600E), percentage protein degraded at maximal compound effect relative to DMSO

Row | Structure (SMILES) | DC50 [1, 5] | Dmax [1, 6] | DC50 [2, 7] | Dmax [2, 8] | DC50 [3, 9] | Dmax [3, 10] | DC50 [4, 11] | Dmax [4, 12] | DC50 [1, 13] | Dmax [1, 14] | DC50 [2, 15] | Dmax [2, 16] | DC50 [3, 17] | Dmax [3, 18] | DC50 [4, 19] | Dmax [4, 20]
1 | CCCS(=O)(=O)Nc1cccc(-c2nc(C3CCC4(CC3)CCN(CC3CCN(c5ccc6c(c5)CN(C5CCC(=O)NC5=O)C6=O)CC3)CC4)sc2-c2ccnc(N)n2)c1F (racemic) [Compound 258, Rac-N-{3-[5-(2-aminopyrimidin-4-yl)-2-{3-[(1-{2-[(3R)-2,6-dioxopiperidin-3-yl]-1-oxo-2,3-dihydro-1H-isoindol-5-yl}piperidin-4-yl)methyl]-3-azaspiro[5.5]undecan-9-yl}-1,3-thiazol-4-yl]-2-fluorophenyl}propane-1-sulfonamide] | > 500 nM | < 30% | > 500 nM | < 30% | > 500 nM | 30 to 70% | < 10 nM | 30 to 70% |  |  |  |  |  |  |  | 
2 | O=C1CCC(N2C(=O)c3ccc(N4CC(CN5CC(c6ccc(-n7cc(-c8ccc9c(c8)CC/C9=N/O)c(-c8ccncc8)n7)cc6)C5)C4)cc3C2=O)C(=O)N1 (racemic) [Compound 262, Rac-2-[(3R)-2,6-dioxopiperidin-3-yl]-5-(3-{[3-(4-{4-[(1Z)-1-(hydroxyimino)-2,3-dihydro-1H-inden-5-yl]-3-(pyridin-4-yl)-1H-pyrazol-1-yl}phenyl)azetidin-1-yl]methyl}azetidin-1-yl)-2,3-dihydro-1H-isoindole-1,3-dione] | > 500 nM | < 30% | > 500 nM | < 30% | > 500 nM | < 30% | < 10 nM | > 70% |  |  |  |  |  |  |  | 
3 | CCCS(=O)(=O)Nc1cccc(-c2cn(C3CCN(C(=O)C4(C)CCN(C(=O)C5CCN(c6ccc(C7CCC(=O)NC7=O)cn6)CC5)CC4)CC3)nc2-c2ccncc2)c1F (racemic) [Compound 8, Rac-N-[3-(1-{1-[1-(1-{5-[(3R)-2,6-dioxopiperidin-3-yl]pyridin-2-yl}piperidine-4-carbonyl)-4-methylpiperidine-4-carbonyl]piperidin-4-yl}-3-(pyridin-4-yl)-1H-pyrazol-4-yl)-2-fluorophenyl]propane-1-sulfonamide] |  |  |  |  |  |  |  |  | > 500 nM | 30 to 70% | > 500 nM | 30 to 70% | > 500 nM | 30 to 70% | 10 to 50 nM | > 70%
4 | CCCS(=O)(=O)Nc1cccc(-c2nc(C(C)(C)C)sc2-c2ccnc(Nc3cccc(OC4CCN(C[C@H]5CC[C@H](Oc6ccc(C7CCC(=O)NC7=O)cc6)CC5)CC4)c3)n2)c1F (mixture of isomers) [Compound 72, N-(3-(2-(tert-butyl)-5-(2-((3-((1-(((1R,4r)-4-(4-((RS)-2,6-dioxopiperidin-3-yl)phenoxy)cyclohexyl)methyl)piperidin-4-yl)oxy)phenyl)amino)pyrimidin-4-yl)thiazol-4-yl)-2-fluorophenyl)propane-1-sulfonamide] |  |  |  |  |  |  |  |  | > 500 nM | < 30% | > 500 nM | 30 to 70% | > 500 nM | 30 to 70% | 10 to 50 nM | 30 to 70%
5 | CCN(C)S(=O)(=O)Nc1cccc(-c2nc(C(C)(C)C)sc2-c2ccnc(Nc3ccc(N4CCN(C(=O)C5(C)CCN(c6ccc(C7CCC(=O)NC7=O)cn6)CC5)CC4)cn3)n2)c1F (racemic) [Compound 42, Rac-(3S)-3-[6-(4-{4-[6-({4-[2-tert-butyl-4-(3-{[ethyl(methyl)sulfamoyl]amino}-2-fluorophenyl)-1,3-thiazol-5-yl]pyrimidin-2-yl}amino)pyridin-3-yl]piperazine-1-carbonyl}-4-methylpiperidin-1-yl)pyridin-3-yl]piperidine-2,6-dione] |  |  |  |  |  |  |  |  | > 500 nM | < 30% | > 500 nM | 30 to 70% | > 500 nM | < 30% | < 10 nM | > 70%
6 | CCN(C)S(=O)(=O)Nc1cccc(-c2nc(C)sc2-c2ccnc(Nc3ccc(N4CCN(CC5(F)CCN(c6ccc(C7CCC(=O)NC7=O)cc6)CC5)CC4)cn3)n2)c1F (racemic) [Compound 33, Rac-(3S)-3-{4-[4-({4-[6-({4-[4-(3-{[ethyl(methyl)sulfamoyl]amino}-2-fluorophenyl)-2-methyl-1,3-thiazol-5-yl]pyrimidin-2-yl}amino)pyridin-3-yl]piperazin-1-yl}methyl)-4-fluoropiperidin-1-yl]phenyl}piperidine-2,6-dione] |  |  |  |  |  |  |  |  | < 10 nM | 30 to 70% | 10 to 50 nM | 30 to 70% | < 10 nM | 30 to 70% | 10 to 50 nM | > 70%
7 | CCN(C)S(=O)(=O)Nc1cc(Cl)cc(-c2cn(-c3ccc(N4CCN(CC5CCN(c6ccc([C@H]7CCC(=O)NC7=O)cn6)CC5)CC4)cc3)nc2-c2ccncc2)c1F [Compound 309, (3R)-3-(6-{4-[(4-{4-[4-(5-chloro-3-{[ethyl(methyl)sulfamoyl]amino}-2-fluorophenyl)-3-(pyridin-4-yl)-1H-pyrazol-1-yl]phenyl}piperazin-1-yl)methyl]piperidin-1-yl}pyridin-3-yl)piperidine-2,6-dione] | 10 to 50 nM | > 70% | < 10 nM | 30 to 70% | < 10 nM | > 70% | < 10 nM | > 70% |  |  |  |  |  |  |  | 
8 | CCN(C)S(=O)(=O)Nc1cccc(-c2nc(C(C)(C)C)sc2-c2ccnc(Nc3ccc(N4CCN(C(=O)C5CCN(c6ccc(C7CCC(=O)NC7=O)cn6)CC5)CC4)cn3)n2)c1F (racemic) [Compound 56, Rac-(3R)-3-[6-(4-{4-[6-({4-[2-tert-butyl-4-(3-{[ethyl(methyl)sulfamoyl]amino}-2-fluorophenyl)-1,3-thiazol-5-yl]pyrimidin-2-yl}amino)pyridin-3-yl]piperazine-1-carbonyl}piperidin-1-yl)pyridin-3-yl]piperidine-2,6-dione] |  |  |  |  |  |  |  |  | 10 to 50 nM | 30 to 70% | < 10 nM | 30 to 70% | < 10 nM | 30 to 70% | < 10 nM | > 70%
9 | CCCS(=O)(=O)Nc1cccc(-c2nc(C(C)(C)C)sc2-c2ccnc(Nc3ccc(N4CCN(C(=O)CC5CCN(c6ccc(C7CCC(=O)NC7=O)cn6)CC5)CC4)c(F)c3)n2)c1F (racemic) [Compound 48, Rac-N-[3-(2-tert-butyl-5-{2-[(4-{4-[2-(1-{5-[(3R)-2,6-dioxopiperidin-3-yl]pyridin-2-yl}piperidin-4-yl)acetyl]piperazin-1-yl}-3-fluorophenyl)amino]pyrimidin-4-yl}-1,3-thiazol-4-yl)-2-fluorophenyl]propane-1-sulfonamide] |  |  |  |  |  |  |  |  | > 500 nM | < 30% | > 500 nM | 30 to 70% | > 500 nM | < 30% | < 10 nM | > 70%
10 | O=C1CC[C@H](c2ccc(N3CCC(CN4CCN(c5ccc(-n6cc(-c7cc(Cl)cc(NS(=O)(=O)N8CC[C@@H](F)C8)c7F)c(-c7ccncc7)n6)cc5F)CC4)CC3)cc2)C(=O)N1 [Compound 367, (3R)—N-{5-chloro-3-[1-(4-{4-[(1-{4-[(3R)-2,6-dioxopiperidin-3-yl]phenyl}piperidin-4-yl)methyl]piperazin-1-yl}-3-fluorophenyl)-3-(pyridin-4-yl)-1H-pyrazol-4-yl]-2-fluorophenyl}-3-fluoropyrrolidine-1-sulfonamide] | < 10 nM | > 70% | < 10 nM | > 70% | < 10 nM | > 70% | < 10 nM | > 70% |  |  |  |  |  |  |  | 
